Measurements taken from the supplement of paper PMC11061612.

Key:
[1] = compound: CC(=O)c1c(C)c2cnc(Nc3ccc(N4CCNCC4)cn3)nc2n(C2CCCC2)c1=O [Palbociclib]; conditions: max 10 µM
In short: (§1)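 Viability was measured with CellTiter-Glo 2.0 luminescence after 72 hours of dosing at a final DMSO of typically 0.2%, and scaled between blank-well and DMSO-well means. Beforehand, cancer cell lines sat 24 hours at 37°C and 5% CO2 in 1536-well plates in 7.5 μl DMEM/F12 or RPMI with 10% FBS. A non-linear mixed effects model fitted two-parameter logistic curves to the dose responses. The single-agent IC50 comes from these fits.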

[2] = compound: C=CCn1c(=O)c2cnc(Nc3ccc(N4CCN(C)CC4)cc3)nc2n1-c1cccc(C(C)(C)O)n1 [AZD1775]; conditions: max 3 µM
In short: as §1

[3] = compound: C[C@@H](c1ccc2nccn2c1)n1nnc2ncc(-c3cnn(C)c3)nc21 [Savolitinib]; conditions: max 1 µM
In short: as §1

[4] = compound: C1CN(CCC1(C(=O)N[C@@H](CCO)C2=CC=C(C=C2)Cl)N)C3=NC=NC4=C3C=CN4 [Capivasertib]; conditions: max 10 µM
In short: as §1

[5] = compound: CN(C)CCCOc1ccc(-c2ccc3ncc4c(c3c2)n(C2CCOCC2)c(=O)n4C)cn1 [AZD0156]; conditions: max 3 µM
In short: as §1

[6] = compound: COc1cccc(OCCCN)c1-c1cc(Nc2cnc(C#N)cn2)n[nH]1 [Prexasertib]; conditions: max 1 µM
In short: as §1

[7] = compound: CC(=O)Nc1cccc(-n2c(=O)n(C3CC3)c(=O)c3c(Nc4ccc(I)cc4F)n(C)c(=O)c(C)c32)c1 [Trametinib]; conditions: max 1 µM
In short: as §1

[8] = compound: COc1cccc2c1C(=O)c1c(O)c3c(c(O)c1C2=O)C[C@@](O)(C(=O)CO)C[C@@H]3O[C@H]1C[C@H](N)[C@H](O)[C@H](C)O1 [Doxorubicin]; conditions: max 1 µM
In short: as §1

[9] = compound: CS(=O)(=O)CCNCc1ccc(-c2ccc3ncnc(Nc4ccc(OCc5cccc(F)c5)c(Cl)c4)c3c2)o1 [Lapatinib]; conditions: max 10 µM
In short: as §1

[10] = compound: Cc1c2c(nn1C)CSCc1cc(n(C)n1)CSc1cc(c3ccccc3c1)OCCCc1c(C(=O)O)n(C)c3c-2c(Cl)ccc13 [AZD5991]; conditions: max 1 µM
In short: as §1

[11] = compound: CC1=C(C(=CC=C1)Cl)NC(=O)C2=CN=C(S2)NC3=CC(=NC(=N3)C)N4CCN(CC4)CCO [Dasatinib]; conditions: max 2 µM
In short: as §1

[12] = compound: Cn1cnc2c(F)c(Nc3ccc(Br)cc3Cl)c(C(=O)NOCCO)cc21 [Selumetinib]; conditions: max 10 µM
In short: as §1

[13] = compound: C[C@@H](Oc1cc(-c2cnn(C3CCNCC3)c2)cnc1N)c1c(Cl)ccc(F)c1Cl [Crizotinib]; conditions: max 10 µM
In short: as §1

[14] = compound: Cc1cc2ncnn2cc1Nc1ncc2c(n1)n(C1CCOCC1)c(=O)n2C [AZD7648]; conditions: max 10 µM
In short: as §1

[15] = compound: Cc1nc(-c2cn3c(n2)-c2ccc(-c4cnn(C(C)(C)C(N)=O)c4)cc2OCC3)n(C(C)C)n1 [Taselisib]; conditions: max 10 µM
In short: as §1

[16] = compound: COc1cc(Nc2ncc3c(n2)-c2ccc(Cl)cc2C(c2c(F)cccc2OC)=NC3)ccc1C(=O)O [Alisertib]; conditions: max 10 µM
In short: as §1

[17] = compound: CC(C)n1c(=O)n(C)c2cnc3cc(F)c(-c4ccc(OCCCN5CCCCC5)nc4)cc3c21 [AZD1390]; conditions: max 0.3 µM
In short: as §1

[18] = compound: C[C@@H](Nc1cc(F)cc(F)c1)c1cc(C(=O)N(C)C)cc2c(=O)cc(N3CCOCC3)oc12 [AZD8186]; conditions: max 3 µM
In short: as §1

[19] = compound: COc1cc2ncnc(Nc3ccc(F)c(Cl)c3)c2cc1OCCCN1CCOCC1 [Gefitinib]; conditions: max 10 µM
In short: as §1

[20] = compound: CN(CC[C@H](CSC1=CC=CC=C1)NC2=C(C=C(C=C2)S(=O)(=O)NC(=O)C3=CC=C(C=C3)N4CCC(CC4)[C@H](C5=CC=CC=C5C6=CC=C(C=C6)Cl)O)S(=O)(=O)C(F)(F)F)CCO [AZD4320]; conditions: max 1 µM
In short: as §1

[21] = compound: CC1(C)CCC(CN2CCN(c3ccc(C(=O)NS(=O)(=O)c4ccc(NCC5CCOCC5)c([N+](=O)[O-])c4)c(Oc4cnc5[nH]ccc5c4)c3)CC2)=C(c2ccc(Cl)cc2)C1 [Venetoclax]; conditions: max 1 µM
In short: as §1

[22] = compound: C[C@@H]1COCCN1C2=NC(=NC(=C2)C3(CC3)[S@](=N)(=O)C)C4=C5C=CNC5=NC=C4 [AZD6738]; conditions: max 10 µM
In short: as §1

[23] = compound: CCN(CCO)CCCOc1ccc2c(Nc3cc(CC(=O)Nc4cccc(F)c4)[nH]n3)ncnc2c1 [AZD2811]; conditions: max 1 µM
In short: as §1

[24] = compound: COc1nnc2ccc(N3CCC(c4ccc(OCCN5CCN(C)C(=O)[C@H]5C)cc4)CC3)nn12 [AZD5153]; conditions: max 1 µM
In short: as §1

[25] = compound: O=C(c1cc(Cc2n[nH]c(=O)c3ccccc23)ccc1F)N1CCN(C(=O)C2CC2)CC1 [Olaparib]; conditions: max 10 µM
In short: as §1

[26] = compound: CC1=CN2[C@@H](C1)C=NC3=CC(=C(C=C3C2=O)OC)OCCCCCOC4=C(C=C5C(=C4)N=C[C@@H]6CC(=CN6C5=O)C)OC [SG3199]; conditions: max 0.001 µM
In short: as §1

[27] = compound: CCc1c2c(nc3ccc(O)cc13)-c1cc3c(c(=O)n1C2)COC(=O)[C@]3(O)CC [SN-38]; conditions: max 0.3 µM
In short: as §1

Row | Cell Line | IC50, cell viability 72 h [1] | IC50, cell viability 72 h [2] | IC50, cell viability 72 h [3] | IC50, cell viability 72 h [4] | IC50, cell viability 72 h [5] | IC50, cell viability 72 h [6] | IC50, cell viability 72 h [7] | IC50, cell viability 72 h [8] | IC50, cell viability 72 h [9] | IC50, cell viability 72 h [10] | IC50, cell viability 72 h [11] | IC50, cell viability 72 h [12] | IC50, cell viability 72 h [13] | IC50, cell viability 72 h [14] | IC50, cell viability 72 h [15] | IC50, cell viability 72 h [16] | IC50, cell viability 72 h [17] | IC50, cell viability 72 h [18] | IC50, cell viability 72 h [19] | IC50, cell viability 72 h [20] | IC50, cell viability 72 h [21] | IC50, cell viability 72 h [22] | IC50, cell viability 72 h [23] | IC50, cell viability 72 h [24] | IC50, cell viability 72 h [25] | IC50, cell viability 72 h [26] | IC50, cell viability 72 h [27]
1 | KARPAS-231 (B-Cell Non-Hodgkin's Lymphoma) | > 10000 nM | 123 nM | > 1000 nM | > 10000 nM | > 3000 nM | 12.5 nM | > 1000 nM | 899 nM | > 10000 nM | 31.4 nM | > 2000 nM | > 10000 nM | > 10000 nM | > 10000 nM | > 10000 nM | 1020 nM | > 300 nM | > 3000 nM | > 10000 nM | 21.2 nM | 7 nM | 6030 nM | 264 nM | > 1000 nM | > 10000 nM | > 1 nM | 1.68 nM
2 | KYSE-410 (Esophageal Squamous Cell Carcinoma) | > 10000 nM | 2210 nM | > 1000 nM | > 10000 nM | > 3000 nM | 952 nM | > 1000 nM | > 1000 nM | 8740 nM | > 1000 nM | 1900 nM | > 10000 nM | > 10000 nM | > 10000 nM | 2710 nM | > 10000 nM | > 300 nM | > 3000 nM | > 10000 nM | > 1000 nM | > 1000 nM | > 10000 nM | > 1000 nM | > 1000 nM | > 10000 nM | > 1 nM | > 300 nM
3 | LB771-HNC (Head and Neck Carcinoma) | > 10000 nM | 742 nM | > 1000 nM | > 10000 nM | > 3000 nM | 367 nM | > 1000 nM | > 1000 nM | > 10000 nM | > 1000 nM | > 2000 nM | > 10000 nM | > 10000 nM | > 10000 nM | 2670 nM | 6250 nM | > 300 nM | > 3000 nM | > 10000 nM | > 1000 nM | > 1000 nM | > 10000 nM | > 1000 nM | > 1000 nM | > 10000 nM | > 1 nM | > 300 nM
